Test results reported in PMC7774954, “Interactomic affinity profiling by holdup assay: Acetylation and distal residues impact the PDZome-binding specificity of PTEN phosphatase” (PLoS ONE, 2020).
*1 amine or outer side, *2 acyl side, *3 side chain or, on linkers, in order; H or OH if unused. Where a SMILES comes first, the peptide text is derived from it. The star is where a group is joined. X1 = O=C(CCCC[C@@H]1SC[C@@H]2NC(=O)N[C@@H]21)NCCCOCCOCCOCCCN*; Suc = O=C(CCC(=O)[*:2])[*:1]

Tests used:
INADL-4 = assay: Holdup assay, INADL-4; type: binding, human
LNX2-1 = assay: Holdup assay, LNX2-1; type: binding, human
MAGI3-4 = assay: Holdup assay, MAGI3-4; type: binding, human
MAGI2-4 = MAGI2-4 (Homo sapiens, UniProt Q86UL8); assay: Holdup assay, MAGI2-4; type: binding
Chain of MAGI2-4 (Q86UL8 whole entry): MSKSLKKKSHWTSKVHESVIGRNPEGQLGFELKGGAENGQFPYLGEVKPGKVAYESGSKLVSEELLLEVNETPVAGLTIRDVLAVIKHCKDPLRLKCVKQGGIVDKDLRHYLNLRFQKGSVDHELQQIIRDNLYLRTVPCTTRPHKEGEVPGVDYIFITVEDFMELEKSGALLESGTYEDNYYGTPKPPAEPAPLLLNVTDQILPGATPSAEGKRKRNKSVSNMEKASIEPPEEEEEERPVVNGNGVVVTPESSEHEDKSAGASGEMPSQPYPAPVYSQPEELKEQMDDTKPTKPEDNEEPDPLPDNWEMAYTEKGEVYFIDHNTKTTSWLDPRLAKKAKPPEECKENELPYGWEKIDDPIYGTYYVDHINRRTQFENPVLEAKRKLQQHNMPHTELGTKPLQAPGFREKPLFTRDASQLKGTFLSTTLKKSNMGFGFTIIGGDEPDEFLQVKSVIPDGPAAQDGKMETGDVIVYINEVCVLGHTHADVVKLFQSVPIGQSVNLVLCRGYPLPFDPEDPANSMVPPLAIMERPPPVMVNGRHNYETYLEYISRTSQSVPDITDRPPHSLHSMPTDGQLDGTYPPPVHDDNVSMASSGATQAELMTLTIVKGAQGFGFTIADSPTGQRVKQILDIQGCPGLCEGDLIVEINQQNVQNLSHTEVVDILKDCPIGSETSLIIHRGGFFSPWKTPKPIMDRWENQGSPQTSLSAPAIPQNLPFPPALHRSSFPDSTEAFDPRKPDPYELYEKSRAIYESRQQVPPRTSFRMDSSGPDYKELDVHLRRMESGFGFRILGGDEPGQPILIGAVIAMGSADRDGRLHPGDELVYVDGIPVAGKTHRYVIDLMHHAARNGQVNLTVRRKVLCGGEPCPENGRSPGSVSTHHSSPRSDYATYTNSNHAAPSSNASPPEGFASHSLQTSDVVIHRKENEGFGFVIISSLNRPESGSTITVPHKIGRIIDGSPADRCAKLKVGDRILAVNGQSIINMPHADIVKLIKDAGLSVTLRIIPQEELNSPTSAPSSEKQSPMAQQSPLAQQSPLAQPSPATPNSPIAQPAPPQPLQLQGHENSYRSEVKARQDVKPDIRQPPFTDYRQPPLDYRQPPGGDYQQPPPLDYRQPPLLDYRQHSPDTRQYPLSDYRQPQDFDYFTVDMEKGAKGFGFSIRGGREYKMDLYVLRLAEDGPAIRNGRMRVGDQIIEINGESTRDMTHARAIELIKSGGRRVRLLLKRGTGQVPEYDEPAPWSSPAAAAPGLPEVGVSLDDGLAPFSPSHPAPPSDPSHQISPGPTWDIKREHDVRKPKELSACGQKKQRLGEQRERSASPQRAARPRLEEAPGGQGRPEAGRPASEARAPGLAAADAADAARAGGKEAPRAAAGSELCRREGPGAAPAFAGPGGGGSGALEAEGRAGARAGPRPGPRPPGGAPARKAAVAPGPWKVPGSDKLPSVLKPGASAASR

GRIP2-3 = assay: Holdup assay, GRIP2-3; type: binding, human
GOPC-1 = GOPC-1 (Homo sapiens, UniProt Q9HD26); assay: Holdup assay, GOPC-1; type: binding
LNX2-4 = assay: Holdup assay, LNX2-4; type: binding, human
LIN7C-1 = assay: Holdup assay, LIN7C-1; type: binding, human
DLG5-1 = assay: Holdup assay, DLG5-1; type: binding, human
HTRA3-1 = assay: Holdup assay, HTRA3-1; type: binding, human
PARD3 PDZ 3 = molecular target: T1, PARD3 PDZ 3 (Homo sapiens, UniProt Q8TEW0); assay: Holdup assay, PARD3-3; type: binding; details: for KD (affinity measured by holdup): PARD3 PDZ 3, singlicate, BI converted to KD, tag-PDZ 4 μM, 15 min, nd: not detected in the holdup assay; for BI: PDZ domain PARD3-3
T1 construct: made in house; host or cells: E. coli
T1 sequence (Q8TEW0 590-677 limits assumed): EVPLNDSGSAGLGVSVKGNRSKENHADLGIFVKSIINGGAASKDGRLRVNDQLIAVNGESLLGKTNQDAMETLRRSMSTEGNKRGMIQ
Protocol: The holdup assay was performed on a Tecan freedom Evo200 robot with 384-well plates in singlicate for the three 11-mer PTEN variants and the 13-mer PTEN peptide as described in [31, 32]. Briefly, prior to interaction assay, 2.5 μL of streptavidin resin was saturated in each well with 20 μL of biotinylated PBM peptides (42 μM) and then washed twice with an excess of free biotin, while the reference resin was incubated only with biotin. Right before the holdup experiment, the PDZ library was spiked with an internal standard of lysozyme. Then, the biotin- or PBM-saturated resin was incubated, each in a distinct well of a 384-well plate, with complete cell lysates diluted so that the concentration of the tag-PDZ present in the crude extract is adjusted at 4 μM. After a sufficient time to reach complex equilibrium (15 min.), a fast and mild filtration step is performed and the tag-PDZ concentrations were measured by capillary electrophoresis instrument (LabChip GXII, PerkinElmer, Massachusets, USA). Standard markers were used to convert migration time into molecular weight on the LabChip software and inappropriate molecular weight markers were corrected or excluded.
For filtered data, the BI was extracted with the following equation (Eq 1) that estimates the depleted fraction after superimposition of the sample and reference electropherograms: BI=Iref−Ilig/Iref (1) where Iref and Ilig are the intensities of the tag-PDZ peaks measured, for each PDZ domain/PBM peptide interaction pair, in the biotin reference and the PBM electropherograms, respectively.
BIs were transformed into dissociation constants (KD) using the following formula: KD=([PDZtot]−BI·[PDZtot])·([PBMtot]−BI·[PDZtot])/BI·[PDZtot] (2) where [PDZtot] and [PBMtot] correspond to the total concentrations of the PDZ domain (usually around 4 μM) and the PBM peptide used during the assay. Since the PBMtot concentration in the resin during the holdup assay parameter may differ from one peptide to another and remains unknown, it is impossible to directly convert BI values into KD constants. We systematically determined the KD constants for a subset of PDZ/PBM pairs by competitive FP. […] For each PBM, the average peptide concentration was calculated after outlier rejection based on the absolute distances from the median as compared to three times the standard deviation (3σ rule), with never more than 2 values rejected.

FRMPD2-1 = assay: Holdup assay, FRMPD2-1; type: binding, human
GRID2IP-1 = assay: Holdup assay, GRID2IP-1; type: binding, human
HTRA4-1 = assay: Holdup assay, HTRA4-1; type: binding, human
DFNB31-3 = molecular target: T2, DFNB31-3 (Homo sapiens, UniProt Q9P202); assay: Holdup assay, DFNB31-3; type: binding
T2 sequence (Q9P202 1-907): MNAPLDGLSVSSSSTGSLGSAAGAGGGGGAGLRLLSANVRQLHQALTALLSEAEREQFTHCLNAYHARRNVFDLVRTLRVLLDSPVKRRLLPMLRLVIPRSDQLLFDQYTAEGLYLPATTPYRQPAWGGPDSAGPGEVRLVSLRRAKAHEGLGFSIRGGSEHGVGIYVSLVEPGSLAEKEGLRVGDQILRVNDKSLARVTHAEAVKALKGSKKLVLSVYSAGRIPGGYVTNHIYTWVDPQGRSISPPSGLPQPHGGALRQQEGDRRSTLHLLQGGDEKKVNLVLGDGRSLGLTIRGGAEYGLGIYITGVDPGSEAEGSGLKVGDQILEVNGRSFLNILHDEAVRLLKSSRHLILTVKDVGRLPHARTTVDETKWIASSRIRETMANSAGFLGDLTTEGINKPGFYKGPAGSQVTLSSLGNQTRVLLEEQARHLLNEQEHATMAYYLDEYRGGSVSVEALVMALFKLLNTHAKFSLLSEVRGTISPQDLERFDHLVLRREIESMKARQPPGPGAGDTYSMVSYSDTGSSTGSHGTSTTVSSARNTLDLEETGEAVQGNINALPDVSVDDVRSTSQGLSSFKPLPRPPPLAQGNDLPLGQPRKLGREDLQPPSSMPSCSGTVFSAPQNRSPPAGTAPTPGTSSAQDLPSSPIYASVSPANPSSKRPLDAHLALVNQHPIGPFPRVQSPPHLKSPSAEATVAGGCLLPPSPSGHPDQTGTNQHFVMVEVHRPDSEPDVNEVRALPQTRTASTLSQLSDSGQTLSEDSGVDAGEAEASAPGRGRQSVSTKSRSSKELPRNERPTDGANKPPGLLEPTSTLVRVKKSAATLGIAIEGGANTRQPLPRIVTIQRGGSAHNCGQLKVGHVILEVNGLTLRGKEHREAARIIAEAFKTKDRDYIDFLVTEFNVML

ARHGEF11-1 = molecular target: T3, ARHGEF11-1 (Homo sapiens, UniProt O15085); assay: Holdup assay, ARHGEF11-1; type: binding
T3 sequence (O15085 47-126): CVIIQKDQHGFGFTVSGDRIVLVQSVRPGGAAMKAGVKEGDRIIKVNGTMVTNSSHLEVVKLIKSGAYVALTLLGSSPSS

Row | SMILES | BI (INADL-4) | LogKD (INADL-4) | BI (LNX2-1) | LogKD (LNX2-1) | BI (MAGI3-4) | LogKD (MAGI3-4) | BI (MAGI2-4) | BI (GRIP2-3) | BI (GOPC-1) | Kd (GOPC-1) | BI (LNX2-4) | BI (LIN7C-1) | BI (DLG5-1) | BI (HTRA3-1) | BI (PARD3 PDZ 3) | BI (FRMPD2-1) | BI (GRID2IP-1) | BI (HTRA4-1) | BI (DFNB31-3) | BI (ARHGEF11-1) | other results
1 | CC[C@H](C)[C@H](NC(=O)[C@H](CCC(N)=O)NC(=O)[C@@H](NC(=O)[C@H](Cc1c[nH]cn1)NC(=O)[C@H](CCC(N)=O)NC(=O)[C@H](CC(=O)O)NC(=O)[C@H](CCC(=O)O)NC(=O)[C@H](CC(=O)O)NC(=O)CCC(=O)NCCCOCCOCCOCCCNC(=O)CCCC[C@@H]1SC[C@@H]2NC(=O)N[C@@H]21)[C@@H](C)O)C(=O)N[C@H](C(=O)N[C@@H](CCCNC(=N)N)C(=O)N[C@H](C(=O)O)C(C)C)[C@@H](C)O [PTEN_KR] ({X1-Suc}-DEDQHTQITRV-OH) | -0.04 | 3.655 | 0.072 | 3.655 | -0.011 | 3.655 | 0.116 | 0.027 | 0.45 | 28.4 µM | -0.045 | -0.071 | -0.041 | 0.065 | 0.044 | -0.015 | -0.033 | 0.004 | -0.014 | 0.18 | LogKD (GRIP2-3): 3.655; LogKD (LNX2-4): 3.655; LogKD (LIN7C-1): 3.655; LogKD (DLG5-1): 3.655; LogKD (HTRA3-1): 3.655; KD (affinity measured by holdup) (PARD3 PDZ 3): 56 µM; LogKD (FRMPD2-1): 3.655; LogKD (GRID2IP-1): 3.655; LogKD (HTRA4-1): 3.655; LogKD (DFNB31-3): 3.655
2 | CC[C@H](C)[C@H](NC(=O)[C@H](CCC(N)=O)NC(=O)[C@@H](NC(=O)[C@H](Cc1c[nH]cn1)NC(=O)[C@H](CCC(N)=O)NC(=O)[C@H](CC(=O)O)NC(=O)[C@H](CCC(=O)O)NC(=O)[C@H](CC(=O)O)NC(=O)[C@H](Cc1ccccc1)NC(=O)[C@@H]1CCCN1C(=O)CCC(=O)NCCCOCCOCCOCCCNC(=O)CCCC[C@@H]1SC[C@@H]2NC(=O)N[C@@H]21)[C@@H](C)O)C(=O)N[C@H](C(=O)N[C@@H](CCCCN)C(=O)N[C@H](C(=O)O)C(C)C)[C@@H](C)O [PTEN_13] ({X1-Suc}-PFDEDQHTQITKV-OH) | -0.084 | – | -0.046 | – | -0.112 | – | -0.036 | 0.027 | 0.199 | 65.2 µM | 0.093 | -0.105 | -0.048 | -0.059 | 0.051 | -0.07 | 0.044 | 0.011 | 0.061 | 0.114 | LogKD (MAGI2-4): 3.826; KD (affinity measured by holdup) (PARD3 PDZ 3): 96 µM; LogKD (DFNB31-3): 3.826
3 | CC[C@H](C)[C@H](NC(=O)[C@H](CCC(N)=O)NC(=O)[C@@H](NC(=O)[C@H](Cc1c[nH]cn1)NC(=O)[C@H](CCC(N)=O)NC(=O)[C@H](CC(=O)O)NC(=O)[C@H](CCC(=O)O)NC(=O)[C@H](CC(=O)O)NC(=O)CCC(=O)NCCCOCCOCCOCCCNC(=O)CCCC[C@@H]1SC[C@@H]2NC(=O)N[C@@H]21)[C@@H](C)O)C(=O)N[C@H](C(=O)N[C@@H](CCCCNC(C)=O)C(=O)N[C@H](C(=O)O)C(C)C)[C@@H](C)O [PTEN_Ac] | -0.106 | 3.605 | 0 | 3.605 | -0.101 | 3.605 | 0.1 | 0.055 | 0.404 | 38.9 µM | 0.013 | 0.012 | -0.005 | 0.011 | 0.104 | -0.083 | -0.067 | -0.059 | 0.275 | 0.428 | LogKD (MAGI2-4): 3.605; LogKD (GRIP2-3): 3.605; LogKD (LNX2-4): 3.605; LogKD (LIN7C-1): 3.605; LogKD (DLG5-1): 3.605; LogKD (HTRA3-1): 3.605; LogKD (FRMPD2-1): 3.605; LogKD (GRID2IP-1): 3.605; LogKD (HTRA4-1): 3.605; Kd (DFNB31-3): 70.9 µM; Kd (ARHGEF11-1): 35.1 µM
4 | CC[C@H](C)[C@H](NC(=O)[C@H](CCC(N)=O)NC(=O)[C@@H](NC(=O)[C@H](Cc1c[nH]cn1)NC(=O)[C@H](CCC(N)=O)NC(=O)[C@H](CC(=O)O)NC(=O)[C@H](CCC(=O)O)NC(=O)[C@H](CC(=O)O)NC(=O)CCC(=O)NCCCOCCOCCOCCCNC(=O)CCCC[C@@H]1SC[C@@H]2NC(=O)N[C@@H]21)[C@@H](C)O)C(=O)N[C@H](C(=O)N[C@@H](CCCCN)C(=O)N[C@H](C(=O)O)C(C)C)[C@@H](C)O [PTEN_11] | -0.049 | 3.519 | 0.094 | 3.519 | -0.092 | 3.519 | 0.06 | 0.054 | 0.26 | 93.8 µM | -0.124 | -0.041 | -0.042 | 0.05 | -0.078 | -0.044 | -0.012 | 0.062 | 0.089 | 0.026 | LogKD (MAGI2-4): 3.519; LogKD (GRIP2-3): 3.519; LogKD (LNX2-4): 3.519; LogKD (LIN7C-1): 3.519; LogKD (DLG5-1): 3.519; LogKD (HTRA3-1): 3.519; KD (affinity measured by holdup) (PARD3 PDZ 3): 160 µM; LogKD (FRMPD2-1): 3.519; LogKD (GRID2IP-1): 3.519; LogKD (HTRA4-1): 3.519; LogKD (DFNB31-3): 3.519; LogKD (ARHGEF11-1): 3.519
